Results published in USRE32455E, “A-21978 antibiotics and process for their production” (priority 1985, dated 1987).
≈ marks a conversion by molar mass, not a printed value. Where “and” joins values, the source holds several entries; their conditions need not be identical. Identical values can stand only once. Like-named read-outs stand apart in the source and are kept apart here.

Experiments:
Streptococcus pneumoniae [1] = experiment: MIC, agar dilution (Table XV); type: cell-based
[2] = test system: Staphylococcus aureus 3055; experiment: MIC, standard agar-dilution test; type: cell-based; conditions: Table XI, sodium salt
[3] = test system: Streptococcus faecalis (Guze); experiment: Streptococcus faecalis descending rat pyelonephritis test; type: in vivo, rat (female albino, Cox-Wistar)
Procedure: In this test, the bacterial culture used was Streptococcus faecalis (Guze). The culture was grown on Trypticase soy agar (BBL), suspended in brain heart infusion broth (BBL), divided into 0.2-ml portions, and frozen in liquid nitrogen. Bacterial suspensions for rat inoculations were prepared daily by seeding a 50-ml flask of trypticase soy broth (BBL) from a frozen ampoule and growing the culture overnight at 37° C. on a shaker. The S. faecalis culture was diluted to 5×10^8 colony-forming units per ml. Test compounds were injected subcutaneously once daily for seven days. All compounds were suspended in 0.125% carboxymethylcellulose.
The experimental rat infections were accomplished by the following procedure. Female, random-bred albino rats (Cox-Wistar) weighing 190 to 210 g were anesthetized by intraperitoneal injection of 12 mg of sodium methohexital supplemented as necessary. The experimental pyelonephritis model was based on the studies of Guze and Beeson in which the left ureter was occluded for 20 min, followed by injection of 0.5 ml of the test organism in the femoral vein. Antimicrobial therapy was commenced 4 to 5 hrs postinfection. Four hours after the last treatment the rats were sacrificed, and the left kidney was removed and homogenized in a Duall grinder containing 9 ml of physiological saline. This represented a 10^-1 dilution of the kidney tissue. Additional 10-fold dilutions in saline were based on the anticipated bacterial cells present in the tissue homogenate. Finally, duplicate agar pour plates were made from several of these dilutions, and the plates were incubated overnight at 37° C. The therapeutic results were expressed in two ways: (i) the percentage of rats with kidney counts of less than 10^2 per g of kidney tissue, referred to as "cures," and (ii) the percentage of rats with at least a 4-log10 reduction in bacterial titer compared with infected control kidneys. Control rats were treated with 0.125% carboxymethylcellulose only. Viable cell counts in kidney tissue from control rats with S. faecalis ranged from 1.2×10^8 to 4.6×10^8 per g of homogenized tissue.

Bacteroides fragilis = experiment: MIC anaerobic bacteria, standard agar-dilution test; type: cell-based
Clostridium perfringens = type: cell-based; conditions: anaerobic, agar-dilution
[4] = test system: Streptococcus pneumoniae Park I; experiment: MIC, standard agar-dilution test; type: cell-based; conditions: Table XI, sodium salt
[5] = test system: Streptococcus pyogenes C203; experiment: MIC, standard broth-dilution test; type: cell-based; conditions: Table XII, sodium salt
[6] = test system: Staphylococcus aureus 3055; experiment: MIC, standard broth-dilution test; type: cell-based; conditions: Table XII, sodium salt
Streptococcus pneumoniae [7] = experiment: Experimental bacterial infection in mice, ED50; type: in vivo; conditions: two doses, subcutaneous administration
Procedure: (§1) When two doses of test compound were administered to mice in illustrative infections, the activity observed was measured as an ED50 value [effective dose in mg/kg to protect fifty percent of the test animals: See Warren Wick, et al., J. Bacteriol. 81, 233-235 (1961)].

Streptococcus pyogenes [8] = experiment: Experimental bacterial infection in mice, ED50; type: in vivo; conditions: two doses
Procedure: as §1

Staphylococcus aureus [9] = experiment: Experimental bacterial infection in mice, ED50; type: in vivo; conditions: two doses, subcutaneous administration
Procedure: as §1

Staphylococcus aureus [10] = experiment: MIC, agar dilution (Table XV); type: cell-based
From the text: ^1 MIC = minimum inhibitory concentration (μg/ml), agar dilution

[11] = Electrometric titration in 66% aqueous dimethylformamide; type: physicochemical; conditions: 66% DMF; Na salt; factors: two determinations
Fusobacterium symbiosum = experiment: MIC anaerobic bacteria, standard agar-dilution test; type: cell-based
Toxicity (LD50) in rat = type: in vivo; conditions: IV
[12] = test system: Viridans Streptococcus 9943; experiment: MIC, standard broth-dilution test; type: cell-based; conditions: Table XII, sodium salt
[13] = test system: Peptostreptococcus intermedius; experiment: MIC anaerobic bacteria, standard agar-dilution test; type: cell-based
Clostridium septicum = experiment: as above; type: cell-based
[14] = test system: Streptococcus pneumoniae Park I; experiment: MIC, standard broth-dilution test; type: cell-based; conditions: Table XII, sodium salt
Eubacterium aerofaciens = experiment: MIC anaerobic bacteria, standard agar-dilution test; type: cell-based
[15] = test system: pathogenic organisms, particularly gram-positive bacteria; experiment: Inhibition of growth of pathogenic organisms; type: cell-based
Toxicity (LD50) in mouse = type: in vivo
[16] = test system: Neisseria gonorrhoeae 111076-4; experiment: MIC, standard agar-dilution test; type: cell-based; conditions: Table XI, sodium salt
[17] = test system: Peptostreptococcus anaerobius; experiment: MIC anaerobic bacteria, standard agar-dilution test; type: cell-based
Actinomyces isaelii = experiment: as above; type: cell-based
Peptococcus prevoti = experiment: as above; type: cell-based
Streptococcus pyogenes [18] = experiment: MIC, agar dilution (Table XV); type: cell-based
[19] = test system: Group D Streptococcus 282; experiment: MIC, standard broth-dilution test; type: cell-based; conditions: Table XII, sodium salt
[20] = test system: Group D Streptococcus 282; experiment: MIC, standard agar-dilution test; type: cell-based; conditions: Table XI, sodium salt
[21] = test system: Peptococcus asaccharolyticus; experiment: MIC anaerobic bacteria, standard agar-dilution test; type: cell-based
Propionibacterium acnes = experiment: as above; type: cell-based
Micrococcus luteus = experiment: Bioassay, paper-disc agar-diffusion; conditions: Na salts; Table VIII
[22] = test system: Streptococcus faecalis (Guze); experiment: In vitro susceptibility (MIC) of the S. faecalis Guze strain; type: cell-based
[23] = test system: Fusobacterium necrophorum; experiment: MIC anaerobic bacteria, standard agar-dilution test; type: cell-based
[24] = test system: Streptococcus pyogenes C203; experiment: MIC, standard agar-dilution test; type: cell-based; conditions: Table XI, sodium salt
[25] = test system: Viridans Streptococcus 9943; experiment: MIC, standard agar-dilution test; type: cell-based; conditions: Table XI, sodium salt
S. roseosporus = experiment: Antibiotic sensitivity, sensitivity discs on seeded agar plates; type: cell-based, Streptomyces roseosporus; conditions: Conc./disc: erythromycin 15 μg, cephalothin 30 μg, lincomycin 2 μg, nystatin 100 units, polymyxin B 300 units, streptomycin 10 μg, tetracycline 30 μg, vancomycin "+μg"; further: key: +: sensitive (zones of inhibition); -: resistant (no zones of inhibition)
Procedure: Temperature range, NaCl tolerance, pH range, and antibiotic sensitivity were done using ISP #2 agar medium. The range of temperatures were: 25°, 28°, 30°, 34°, 37°, 40°, 45°, 50° and 55° C. […] These were incubated at 30° C. The pH range was measured by adjusting the agar from pH 3.0 to 11.0 at increments of 1.0 pH units, just prior to pouring. Antibiotic sensitivity was determined using sensitivity discs padded onto seeded agar plates.

A21978.6 = experiment: as above; type: cell-based, Streptomyces roseosporus; conditions: Conc./disc: erythromycin 15 μg, cephalothin 30 μg, lincomycin 2 μg, nystatin 100 units, polymyxin B 300 units, streptomycin 10 μg, tetracycline 30 μg, vancomycin "+μg"
Procedure: Temperature range, NaCl tolerance, pH range, and antibiotic sensitivity were done using ISP #2 agar medium. The range of temperatures were: 25°, 28°, 30°, 34°, 37°, 40°, 45°, 50° and 55° C. NaCl tolerance was measured by adding NaCl to the agar to equal: 0, 1, 2, 3, 4, 5, 6, 8, 10 and 12%. These were incubated at 30° C. The pH range was measured by adjusting the agar from pH 3.0 to 11.0 at increments of 1.0 pH units, just prior to pouring. Antibiotic sensitivity was determined using sensitivity discs padded onto seeded agar plates.
Wherever Antibiotic sensitivity is given: key: +: sensitive (zones of inhibition); -: resistant (no zones of inhibition).

Compound: CCC(C)CCCCCCCCC(=O)N[C@@H](Cc1c[nH]c2ccccc12)C(=O)N[C@@H](CC(N)=O)C(=O)N[C@@H](CC(=O)O)C(=O)N[C@@H]1C(=O)NCC(=O)N[C@@H](CCCN)C(=O)N[C@@H](CC(=O)O)C(=O)N[C@H](C)C(=O)N[C@@H](CC(=O)O)C(=O)NCC(=O)N[C@H](CO)C(=O)N[C@@H]([C@H](C)CC(=O)O)C(=O)N[C@@H](CC(=O)c2ccccc2N)C(=O)O[C@@H]1C (some centres unmarked) [Factor C3]
- MIC (Streptococcus pneumoniae [1]): 0.03 mg/L (≈ 0.018 µM)
- MIC [2]: 0.06 mg/L
- Percent of Rats Cured ([3]; 1.0 mg/kg × 7, subcutaneous): 78%
- Percent of Rats with a 4-Log Titer Decrease ([3]; 1.0 mg/kg × 7, subcutaneous): 78%
- MIC (Bacteroides fragilis): > 128 mg/L
- MIC (Clostridium perfringens): 8 mg/L (≈ 4.81 µM)
- MIC [4]: 0.13 mg/L
- MIC [5]: 0.13 mg/L
- MIC [6]: 0.13 mg/L
- ED50 (Streptococcus pneumoniae [7]): 0.09 mg/kg
- ED50 (Streptococcus pyogenes [8]): 0.032 mg/kg
- ED50 (Streptococcus pyogenes [8]; oral administration): 66 mg/kg
- ED50 (Staphylococcus aureus [9]): 0.08 mg/kg
- MIC (Staphylococcus aureus [10]): 0.06 mg/L (≈ 0.0361 µM)
- pKa (first group) [11]: 5.73 and 5.75
- pKa (second group) [11]: 7.54 and 7.58
- MIC (Fusobacterium symbiosum): 16 mg/L (≈ 9.62 µM)
- LD50 (Toxicity (LD50) in rat): < 160 mg/kg
- MIC [12]: 32.0 mg/L
- MIC [13]: < 0.5 mg/L
- MIC (Clostridium septicum): 1.0 mg/L (≈ 0.601 µM)
- MIC [14]: 0.5 mg/L
- MIC (Eubacterium aerofaciens): 4 mg/L (≈ 2.41 µM)
- growth inhibition [15]: inhibit the growth of certain pathogenic organisms, particularly gram-positive bacteria
- LD50 (Toxicity (LD50) in mouse; IV): < 50 mg/kg
- LD50 (Toxicity (LD50) in mouse; SC): 70 to 75 mg/kg
- MIC [16]: 4.0 mg/L
- MIC [17]: 1.0 mg/L (≈ 0.601 µM)
- MIC (Actinomyces isaelii): 1.0 mg/L (≈ 0.601 µM)
- MIC (Peptococcus prevoti): < 0.5 mg/L
- MIC (Streptococcus pyogenes [18]): 0.06 mg/L (≈ 0.0361 µM)
- MIC [19]: 0.13 mg/L
- MIC [20]: 0.13 mg/L
- MIC [21]: 1.0 mg/L (≈ 0.601 µM)
- MIC (Propionibacterium acnes): 1.0 mg/L (≈ 0.601 µM)
- Bioassay (Micrococcus luteus) (Micrococcus luteus): 803 units/mg
- MIC ([22]; Table XVI): 0.13 mg/L (≈ 0.0782 µM)
- MIC [23]: 32 mg/L (≈ 19.2 µM)
- MIC [24]: 0.25 mg/L
- MIC [25]: 0.5 mg/L

Compound: CC(=O)OCC1=C(C(=O)O)N2C(=O)[C@@H](NC(=O)Cc3cccs3)[C@H]2SC1 [Cephalothin]
- Antibiotic sensitivity (S. roseosporus): +
- Antibiotic sensitivity (A21978.6): +

Compound: Polymyxin B
- Antibiotic sensitivity (S. roseosporus): -
- Antibiotic sensitivity (A21978.6): +

Compound: CCC[C@@H]1C[C@@H](C(=O)N[C@@H]([C@H]2O[C@H](SC)[C@H](O)[C@@H](O)[C@H]2O)[C@@H](C)O)N(C)C1 [Lincomycin]
- Antibiotic sensitivity (S. roseosporus): -
- Antibiotic sensitivity (A21978.6): -

Compound: CC[C@H]1OC(=O)[C@H](C)[C@@H](O[C@H]2C[C@@](C)(OC)[C@@H](O)[C@H](C)O2)[C@H](C)[C@@H](O[C@@H]2O[C@H](C)C[C@H](N(C)C)[C@H]2O)[C@](C)(O)C[C@@H](C)C(=O)[C@H](C)[C@@H](O)[C@]1(C)O [Erythromycin, reference compound]
- MIC (Streptococcus pneumoniae [1]; Streptococcus pneumoniae, read-out: MIC): 0.5 mg/L (≈ 0.681 µM)
- Antibiotic sensitivity (S. roseosporus): +
- MIC (Staphylococcus aureus [10]; Staphylococcus aureus, read-out: MIC): 0.13 mg/L (≈ 0.177 µM)
- MIC (Streptococcus pyogenes [18]; Streptococcus pyogenes, read-out: MIC): 0.13 mg/L (≈ 0.177 µM)
- Antibiotic sensitivity (A21978.6): +

Compound: CN(C)C1C(=O)C(C(N)=O)=C(O)C2(O)C(=O)C3=C(O)c4c(O)cccc4C(C)(O)C3CC12 (centres unmarked) [Tetracycline]
- Antibiotic sensitivity (S. roseosporus): +
- Antibiotic sensitivity (A21978.6): +

Compound: C[C@@H]1[C@H](O)[C@@H](C)/C=C/C=C/CC/C=C/C=C/C=C/C=C/C(O[C@H]2O[C@H](C)[C@@H](O)[C@H](N)[C@@H]2O)CC2O[C@](O)(CC(O)C(O)CCC(O)CC(O)CC(O)CC(=O)O[C@H]1C)CC(O)C2C(=O)O (some centres unmarked) [Nystatin]
- Antibiotic sensitivity (S. roseosporus): -
- Antibiotic sensitivity (A21978.6): -

Compound: [H]/N=C(/N)N[C@H]1[C@H](O)[C@@H](O)[C@H](O[C@@H]2O[C@@H](C)[C@](O)(C=O)[C@H]2O[C@@H]2O[C@@H](CO)[C@H](O)[C@@H](O)[C@@H]2NC)[C@@H](N/C(N)=N\[H])[C@@H]1O [Streptomycin]
- Antibiotic sensitivity (S. roseosporus): +
- Antibiotic sensitivity (A21978.6): +

Compound: CN[C@H](CC(C)C)C(=O)N[C@H]1C(=O)N[C@@H](CC(N)=O)C(=O)N[C@H]2C(=O)N[C@H]3C(=O)N[C@H](C(=O)N[C@H](C(=O)O)c4cc(O)cc(O)c4-c4cc3ccc4O)[C@H](O)c3ccc(c(Cl)c3)Oc3cc2cc(c3O[C@@H]2O[C@H](CO)[C@@H](O)[C@H](O)[C@H]2O[C@H]2C[C@](C)(N)[C@H](O)[C@H](C)O2)Oc2ccc(cc2Cl)[C@H]1O [Vancomycin, reference compound]
- Antibiotic sensitivity (S. roseosporus): +
- Percent of Rats Cured ([3]; 12.0 mg/kg × 7, subcutaneous): 33%
- Percent of Rats with a 4-Log Titer Decrease ([3]; 12.0 mg/kg × 7, subcutaneous): 55%
- MIC ([22]; Enterococcus faecalis): 1 mg/L (≈ 0.69 µM)
- Antibiotic sensitivity (A21978.6): +
